The target in the assay is T1, NMDA receptor composed of four subunits including 2 sets of heterodimers of NR1 and NR2B (Homo sapiens, UniProt Q13224).
T1 construct: host or cells: HEK293 (tetracycline-induced expression)
T1 sequence (Q13224 27-1484, other chains not shown): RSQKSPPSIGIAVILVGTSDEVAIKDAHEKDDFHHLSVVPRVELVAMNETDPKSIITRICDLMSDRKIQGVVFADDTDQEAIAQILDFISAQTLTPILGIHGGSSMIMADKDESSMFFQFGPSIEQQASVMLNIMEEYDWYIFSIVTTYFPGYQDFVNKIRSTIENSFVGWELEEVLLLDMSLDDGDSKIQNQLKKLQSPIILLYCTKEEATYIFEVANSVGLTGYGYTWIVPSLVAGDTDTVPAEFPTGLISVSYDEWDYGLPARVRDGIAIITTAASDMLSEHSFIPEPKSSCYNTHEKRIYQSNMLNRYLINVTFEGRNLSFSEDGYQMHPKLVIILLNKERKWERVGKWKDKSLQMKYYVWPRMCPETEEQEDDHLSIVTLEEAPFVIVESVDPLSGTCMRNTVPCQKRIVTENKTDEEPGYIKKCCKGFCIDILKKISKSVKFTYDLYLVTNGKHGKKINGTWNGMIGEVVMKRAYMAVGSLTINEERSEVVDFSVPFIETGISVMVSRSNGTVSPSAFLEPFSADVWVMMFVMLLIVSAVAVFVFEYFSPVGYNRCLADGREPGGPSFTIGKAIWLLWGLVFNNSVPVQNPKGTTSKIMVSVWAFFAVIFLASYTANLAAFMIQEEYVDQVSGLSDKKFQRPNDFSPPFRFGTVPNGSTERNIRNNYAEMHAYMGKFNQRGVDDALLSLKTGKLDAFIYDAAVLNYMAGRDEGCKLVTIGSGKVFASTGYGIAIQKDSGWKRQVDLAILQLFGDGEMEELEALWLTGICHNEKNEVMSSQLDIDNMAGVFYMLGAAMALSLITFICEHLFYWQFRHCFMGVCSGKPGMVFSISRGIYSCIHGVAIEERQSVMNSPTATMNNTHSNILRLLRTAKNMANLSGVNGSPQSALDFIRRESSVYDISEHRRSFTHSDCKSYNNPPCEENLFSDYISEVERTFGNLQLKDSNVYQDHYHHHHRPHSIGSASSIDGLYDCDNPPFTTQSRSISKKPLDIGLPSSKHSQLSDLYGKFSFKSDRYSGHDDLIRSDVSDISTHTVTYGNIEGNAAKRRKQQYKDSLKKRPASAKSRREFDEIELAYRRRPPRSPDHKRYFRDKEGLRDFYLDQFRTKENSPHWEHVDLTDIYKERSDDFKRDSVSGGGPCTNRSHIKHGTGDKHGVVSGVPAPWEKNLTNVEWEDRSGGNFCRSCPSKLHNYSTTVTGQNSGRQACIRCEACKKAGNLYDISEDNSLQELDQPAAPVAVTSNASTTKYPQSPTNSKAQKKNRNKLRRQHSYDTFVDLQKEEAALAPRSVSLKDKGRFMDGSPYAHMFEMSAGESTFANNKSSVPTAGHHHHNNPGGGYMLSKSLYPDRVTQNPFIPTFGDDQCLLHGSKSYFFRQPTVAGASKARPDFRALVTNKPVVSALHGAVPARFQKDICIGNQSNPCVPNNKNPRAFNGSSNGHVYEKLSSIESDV
Description: NR2B Ca2+ influx assay (FLIPR, Fluo-4) in HEK293 cells expressing human GRIN1 and GRIN2B. Type of assay: cell-based. As to conditions: HEK293, 10 μM final compound concentration, glutamic acid/glycine-induced Ca2+ influx, read-out: inhibitory rate (10 μM compound concentration). The gist of the method:
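Inhibition rate was calculated from 5-min cumulative Fluo-4 signal (FLIPR, 3-s reads), using agonist-free buffer wells as 100% inhibition. Compound, 10 μM final, was applied 15 min before adding buffer with 30 μM glutamic acid and glycine to HEK293 cells with tetracycline-induced human NR1/NR2B, in HEPES pH 7.2 with 1.8 mM CaCl2.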
For the compound `COc1ccc(C(=O)NCc2c(C3CC3)ccc3[nH]ncc23)cc1` [Example 101, N-((5-cyclopropyl-1H-indazol-4-yl)methyl)-methoxybenzamide], the inhibition at 10 µM was determined as 92%.
In the case of `O=C(NCc1c(C2CC2)ccc2[nH]ncc12)c1ccc(Cl)cc1` [Example 102, 4-chloro-N-((5-cyclopropyl-1H-indazol-yl)methyl)benzamide] it was 92%.
In the case of `COc1ncc(C(=O)NCc2c(C3CC3)ccc3[nH]ncc23)cc1Cl` [Example 103, 5-chloro-N-((5-cyclopropyl-1H-indazol-yl)methyl)-6-methoxynicotinamide] it was 93%.
In the case of `CCOc1ncc(C(=O)NCc2c(C3CC3)ccc3[nH]ncc23)cc1Cl` [Example 104, 5-chloro-N-((5-cyclopropyl-1H-indazol-4-yl)methyl)-6-ethoxynicotinamide] it was 90%; in that of `O=C(NCc1c(C2CC2)ccc2[nH]ncc12)c1cnc(OC(F)F)c(F)c1` [Example 105, N-((5-cyclopropyl-1H-indazol-4-yl)methyl)-6-(difluoromethoxy)-5-fluoronicotinamide], 93%; in that of `O=C(NCc1c(C2CC2)ccc2[nH]ncc12)c1ccc(OC(F)(F)F)nc1` [Example 106, N-((5-cyclopropyl-1H-indazol-4-yl)-methyl)-6-(trifluoro-methoxy)nicotinamide], 93%.
As for `O=C(NCc1c(C2CC2)ccc2[nH]ncc12)c1ccc(OC(F)F)c(Cl)c1` [Example 107, 3-chloro-N-((5-cyclopropyl-1H-indazol-yl)methyl)-4-(difluoromethoxy)-benzamide], the inhibition at 10 µM was determined as 93%.
In the case of `O=C(NCc1c(C2CC2)ccc2[nH]ncc12)c1cc(F)c(C(F)F)c(F)c1` [Example 108, N-((5-cyclopropyl-1H-indazol-4-yl)methyl)-(difluoromethyl)-3,5-dlfluorobenzamide] it was 94%; in that of `Cc1ccc2ncn(C)c2c1CNC(=O)c1ccc(OC(F)F)c(F)c1` [Example 109, 4-(difluoromethoxy)-N-((1,6-dimethyl-1H-benzimidazol-7-yl)methyl)-3-fluorobenzamide], 92%; in that of `COc1ccc2ncn(C)c2c1CNC(=O)c1csc(C(F)F)c1` [Example 110, 5-(difluoromethyl)-N-((6-methoxy-1-methyl-1H-benzimidazol-7-yl)methyl)thiophene-3-carboxamide], 92%.
With `COc1ccc2ncn(C)c2c1CNC(=O)c1cc(F)c(OC)c(Cl)c1` [Example 111, 3-chloro-5-fluoro-4-methoxy-N-((6-methoxy-1-methyl-1H-benzimidazol-7-yl)methyl)benzamide] the figure was 93%; with `COc1ccc2ncn(C)c2c1CNC(=O)c1ccc(C(F)F)c(Cl)c1` [Example 112, 3-chloro-4-(difluoromethyl)-N-((6-methoxy-1-methyl-1H-benzimidazol-7-yl)methyl)benzamide], 92%.
In the case of `COc1ccc2ncn(C)c2c1CNC(=O)c1cnc(C(F)(F)F)c(Cl)c1` [Example 113, 5-chloro-N-((6-methoxy-1-methyl-1H-benzimidazol-7-yl)methyl)-6-(trifluoromethyl)-nicotinamide] it was 90%; in that of `COc1ccc2ncn(C)c2c1CNC(=O)c1ccc(C)cc1` [Example 114, N-((6-methoxy-1-methyl-1H-benzimidazol-7-yl)methyl)-4-methylbenzamide], 87%.
With `COc1ccc2ncn(C)c2c1CNC(=O)c1csc(C2CC2)c1` [Example 115, 5-cyclopropyl-N-((6-methoxy-1-methyl-1H-benzimidazol-7-yl)methyl)thiophene-3-carboxamide], the inhibition at 10 µM amounted to 93%.
With `COc1ccc2ncn(C)c2c1CNC(=O)c1ccc(Cl)cc1` [Example 116, 4-chloro-N-((6-methoxy-1-methyl-1H-benzimidazol-7-yl)methyl)benzamide] the figure was 90%.
With `COc1ccc2ncn(C)c2c1CNC(=O)c1ccc(C(F)(F)F)cc1` [Example 117, N-((6-methoxy-1-methyl-1H-benzimidazol-7-yl)methyl)-4-(trifluoromethyl)benzamide] the figure was 90%; with `O=C(NCc1c(C2CC2)ccc2[nH]ncc12)c1ccc(C(F)F)c(F)c1` [Example 118, N-((5-cyclopropyl-1H-indazol-4-yl)methyl)-4-(difluoromethyl)-3-fluorobenzamide], 94%.
Regarding `CCOc1ncc(C(=O)NCc2c(C3CC3)ccc3[nH]ncc23)cc1F` [Example 119, N-((5-cyclopropyl-1H-indazol-4-yl)methyl)-6-ethoxy-5-fluoronicotinamide], the inhibition at 10 µM turned out to be 94%.
In the case of `O=C(NCc1c(C2CC2)ccc2[nH]ncc12)c1ccc(OC(F)F)c(F)c1` [Example 120, N-((5-cyclopropyl-1H-indazol-4-yl)methyl)-4-(difluoromethoxy)-3-fluorobenzamide] it was 92%.
In the case of `O=C(NCc1c(C2CC2)ccc2[nH]ncc12)c1cnc(OC(F)F)c(Cl)c1` [Example 121, 5-chloro-N-((5-cyclopropyl-1H-indazol-4-yl)methyl)-6-(difluoromethoxy)-nicotinamide] it was 91%; in that of `CCc1ccc(C(=O)NCc2c(OC)ccc3ncn(C)c23)s1` [Example 122, 5-ethyl-N-((6-methoxy-1-methyl-1H-benzimidazol-7-yl)methyl)thiophene-2-carboxamide], 90%; in that of `COc1ccc2ncn(C)c2c1CNC(=O)c1ccc(C(F)F)cc1` [Example 123, 4-(difluoromethyl)-N-((6-methoxy-1-methyl-1H-benzimidazol-7-yl)methyl)benzamide], 88%.
In the case of `COc1ccc2ncn(C)c2c1CNC(=O)c1ccc(C(F)F)c(F)c1` [Example 124, 4-(difluoromethyl)-3-fluoro-N-((6-methoxy-1-methyl-1H-benzimidazol-7-yl)methyl)benzamide] it was 90%; in that of `CCOc1ccc2ncn(C)c2c1CNC(=O)c1csc(C(F)F)c1` [Example 125, 5-(difluoromethyl)-N-((6-ethoxy-1-methyl-1H-benzimidazol-7-yl)methyl)thiophene-3-carboxamide], 92%; in that of `CCOc1ccc2ncn(C)c2c1CNC(=O)c1ccc(C(F)F)s1` [Example 126, 5-(difluoromethyl)-N-((6-ethoxy-1-methyl-1H-benzimidazol-7-yl)methyl)thiophene-2-carboxamide], 88%.
On to `CCOc1ccc2ncn(C)c2c1CNC(=O)c1cc(F)c(OC)c(F)c1` [Example 127, N-((6-ethoxy-1-methyl-1H-benzimidazol-7-yl)methyl)-3,5-difluoro-4-methoxybenzamide], for which the inhibition at 10 µM was 92%.
In the case of `CCOc1ccc2ncn(C)c2c1CNC(=O)c1ccc(C(F)(F)F)cc1` [Example 128, N-((6-ethoxy-1-methyl-1H-benzimidazol-7-yl)methyl)-4-(trifluoromethyl)-benzamide] it was 91%.
On to `COc1ccc(C(=O)NCc2c(C)ccc3ncn(C)c23)cc1F` [Example 129, N-((1,6-dimethyl-1H-benzimidazol-7-yl)methyl)-3-fluoro-4-methoxybenzamide], for which the inhibition at 10 µM is 88%.

The record behind these values is patent US11230541B2, “Heterocyclic compound” (Takeda Pharmaceutical Company Limited, priority 2017, dated 2022).
